# PMC7497641, “Neurotropic activity and safety of methylene-cycloalkylacetate (MCA) derivative 3-(3-allyl-2-methylenecyclohexyl) propanoic acid” (ACS Chemical Neuroscience, 2020)
# Key:
# [1] = biological target: T1, cAMP-specific 3′,5′-cyclic phospho-diesterase 4D2 (PDE4D2) (Homo sapiens, UniProt Q08499); assay: SAFETYscan Enzymatic assay; assay type: biochemical; settings: Inhibitor
# T1 construct: purchased Signal Chem
# [2] = biological target: T2, Cannabinoid Receptor 1 (CNR1) (Homo sapiens, UniProt P21554); assay: SAFETYscan GPCR cAMP; assay type: cell-based
# T2 construct: host or cells: cAMP Hunter cell lines
# T2 sequence (P21554 whole entry): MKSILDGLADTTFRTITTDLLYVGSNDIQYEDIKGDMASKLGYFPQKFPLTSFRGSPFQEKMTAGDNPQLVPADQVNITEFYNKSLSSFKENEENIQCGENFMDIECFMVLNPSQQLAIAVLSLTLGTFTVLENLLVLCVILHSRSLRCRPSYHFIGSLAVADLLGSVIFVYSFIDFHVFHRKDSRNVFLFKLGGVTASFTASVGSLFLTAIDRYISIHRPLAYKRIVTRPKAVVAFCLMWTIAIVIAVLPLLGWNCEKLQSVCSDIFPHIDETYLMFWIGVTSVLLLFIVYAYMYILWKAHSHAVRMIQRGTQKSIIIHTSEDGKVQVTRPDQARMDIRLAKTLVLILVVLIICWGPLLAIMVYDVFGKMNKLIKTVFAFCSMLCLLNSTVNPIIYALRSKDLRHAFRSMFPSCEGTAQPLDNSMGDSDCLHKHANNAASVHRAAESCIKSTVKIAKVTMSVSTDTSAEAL
# [3] = biological target: T3, Insulin Receptor (tyrosine kinase) (INSR) (Homo sapiens, UniProt P06213); assay: SAFETYscan KINOMEscan binding assay; settings: Inhibitor
# T3 construct: host or cells: E. coli BL21-derived host (T7 phage) or HEK-293
# [4] = biological target: T4, 5-Hydroxy tryptamine (Serotonin) Receptor 1B (HTR1B) (Homo sapiens, UniProt P28222); assay: SAFETYscan GPCR cAMP; assay type: cell-based
# T4 construct: host or cells: cAMP Hunter cell lines
# T4 sequence (P28222 whole entry): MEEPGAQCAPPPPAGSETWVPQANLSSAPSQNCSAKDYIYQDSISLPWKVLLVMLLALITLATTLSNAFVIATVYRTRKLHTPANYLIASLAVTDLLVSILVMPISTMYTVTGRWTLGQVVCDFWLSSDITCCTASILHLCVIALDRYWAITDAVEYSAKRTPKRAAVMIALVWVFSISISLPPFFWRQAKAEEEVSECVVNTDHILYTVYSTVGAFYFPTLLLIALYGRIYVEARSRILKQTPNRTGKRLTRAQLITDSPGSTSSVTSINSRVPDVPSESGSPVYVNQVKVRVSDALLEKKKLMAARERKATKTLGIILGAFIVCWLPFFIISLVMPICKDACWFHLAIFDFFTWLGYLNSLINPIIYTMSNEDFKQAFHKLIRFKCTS
# [5] = biological target: T5, Rho Associated Coiled-Coil Containing Protein Kinase 1 (serine-threonine kinase) (ROCK1) (Homo sapiens, UniProt Q13464); assay: SAFETYscan KINOMEscan binding assay; settings: Inhibitor
# T5 construct: host or cells: E. coli BL21-derived host (T7 phage) or HEK-293
# T5 sequence (Q13464 whole entry): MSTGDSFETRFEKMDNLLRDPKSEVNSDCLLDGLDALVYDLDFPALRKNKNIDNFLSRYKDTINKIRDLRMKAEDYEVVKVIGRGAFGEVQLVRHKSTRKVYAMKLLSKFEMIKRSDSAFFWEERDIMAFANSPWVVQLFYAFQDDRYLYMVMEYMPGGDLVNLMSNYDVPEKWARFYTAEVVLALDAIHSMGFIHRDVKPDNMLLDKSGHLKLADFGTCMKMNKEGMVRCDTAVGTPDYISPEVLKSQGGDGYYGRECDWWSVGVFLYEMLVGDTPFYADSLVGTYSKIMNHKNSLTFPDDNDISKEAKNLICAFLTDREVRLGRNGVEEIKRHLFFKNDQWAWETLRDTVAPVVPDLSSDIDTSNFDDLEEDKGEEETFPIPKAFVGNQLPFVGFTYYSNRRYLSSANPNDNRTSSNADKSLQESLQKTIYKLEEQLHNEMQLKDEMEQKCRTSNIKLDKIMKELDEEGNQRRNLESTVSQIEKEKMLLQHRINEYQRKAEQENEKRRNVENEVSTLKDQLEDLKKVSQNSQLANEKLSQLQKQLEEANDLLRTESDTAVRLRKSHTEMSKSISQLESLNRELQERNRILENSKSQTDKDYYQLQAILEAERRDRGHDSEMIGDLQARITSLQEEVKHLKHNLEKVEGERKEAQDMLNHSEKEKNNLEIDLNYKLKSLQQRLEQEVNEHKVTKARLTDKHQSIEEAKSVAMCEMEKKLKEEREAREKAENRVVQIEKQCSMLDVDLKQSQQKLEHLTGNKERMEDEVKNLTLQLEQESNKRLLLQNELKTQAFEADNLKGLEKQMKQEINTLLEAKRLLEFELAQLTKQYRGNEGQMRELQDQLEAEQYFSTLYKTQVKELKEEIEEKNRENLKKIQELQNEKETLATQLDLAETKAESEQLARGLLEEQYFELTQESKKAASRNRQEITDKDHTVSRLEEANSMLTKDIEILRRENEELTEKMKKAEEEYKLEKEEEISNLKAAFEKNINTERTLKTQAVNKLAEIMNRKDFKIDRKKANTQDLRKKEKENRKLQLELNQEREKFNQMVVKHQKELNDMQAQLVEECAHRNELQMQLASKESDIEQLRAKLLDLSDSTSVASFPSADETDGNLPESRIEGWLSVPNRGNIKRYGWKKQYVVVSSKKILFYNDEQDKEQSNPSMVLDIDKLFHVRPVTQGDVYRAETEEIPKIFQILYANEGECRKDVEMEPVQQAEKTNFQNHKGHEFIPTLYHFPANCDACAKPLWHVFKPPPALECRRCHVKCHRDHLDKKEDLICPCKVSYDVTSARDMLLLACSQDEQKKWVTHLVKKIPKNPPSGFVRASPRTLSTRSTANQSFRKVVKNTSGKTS
# [6] = biological target: Nuclear Hormone Androgen Receptor (AR) (Homo sapiens, UniProt P10275); assay: SAFETYscan Nuclear Hormone Receptor assay; assay type: cell-based
# [7] = biological target: Histamine Receptor H1 (HRH1) (Homo sapiens, UniProt P35367); assay: SAFETYscan GPCR Calcium Flux; assay type: cell-based; settings: read-out: RC50 (the source's name)
# [8] = biological target: T6, Acetylcholinesterase (AChE) (Homo sapiens, UniProt P22303); assay: SAFETYscan Enzymatic assay; assay type: biochemical
# T6 construct: purchased R&D Systems
# [9] = biological target: Endothelin Receptor Type A (EDNRA) (Homo sapiens, UniProt P25101); assay: SAFETYscan GPCR Calcium Flux; assay type: cell-based; settings: read-out: RC50 (the source's name)
# Endothelin Receptor Type A (EDNRA), sequence (P25101 21-427): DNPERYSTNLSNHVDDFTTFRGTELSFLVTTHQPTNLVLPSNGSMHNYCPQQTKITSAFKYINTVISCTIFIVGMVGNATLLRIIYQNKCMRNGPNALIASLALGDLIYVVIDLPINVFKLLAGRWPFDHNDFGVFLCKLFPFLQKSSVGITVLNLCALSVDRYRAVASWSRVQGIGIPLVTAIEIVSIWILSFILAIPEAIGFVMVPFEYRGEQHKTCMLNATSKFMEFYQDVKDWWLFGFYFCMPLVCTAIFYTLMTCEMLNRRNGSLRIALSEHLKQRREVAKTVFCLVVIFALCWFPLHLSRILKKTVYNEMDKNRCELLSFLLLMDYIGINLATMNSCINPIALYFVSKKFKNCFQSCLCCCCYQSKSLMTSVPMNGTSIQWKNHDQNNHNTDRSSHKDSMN
# [10] = biological target: Cholecystokinin Receptor A (CCKAR) (Homo sapiens, UniProt P32238); assay: SAFETYscan GPCR Calcium Flux; assay type: cell-based; settings: read-out: RC50 (the source's name)
# [11] = biological target: Muscarinic acetylcholine Receptor M3 (CHRM3) (Homo sapiens, UniProt P20309); assay: cell-based; settings: Calcium Flux, read-out: RC50 (the source's name)
# [12] = biological target: A tetrodotoxin-resistant voltage-gated sodium channel (NAVI1.5) (Homo sapiens, UniProt Q14524); assay: cell-based
# [13] = biological target: T7, Dopamine transporter (DAT) (Homo sapiens, UniProt Q01959); assay: SAFETYscan Transporter assay; assay type: cell-based
# T7 construct: host or cells: unnamed DiscoverX cell line
# [14] = biological target: Adrenergic Receptor β2 (ADRB2) (Homo sapiens, UniProt P07550); assay: SAFETYscan GPCR cAMP; assay type: cell-based
# [15] = biological target: T8, Serotonin transporter (SERT) (Homo sapiens, UniProt P31645); assay: cell-based; settings: Blocker
# T8 construct: host or cells: unnamed DiscoverX cell line
# T8 sequence (P31645 whole entry): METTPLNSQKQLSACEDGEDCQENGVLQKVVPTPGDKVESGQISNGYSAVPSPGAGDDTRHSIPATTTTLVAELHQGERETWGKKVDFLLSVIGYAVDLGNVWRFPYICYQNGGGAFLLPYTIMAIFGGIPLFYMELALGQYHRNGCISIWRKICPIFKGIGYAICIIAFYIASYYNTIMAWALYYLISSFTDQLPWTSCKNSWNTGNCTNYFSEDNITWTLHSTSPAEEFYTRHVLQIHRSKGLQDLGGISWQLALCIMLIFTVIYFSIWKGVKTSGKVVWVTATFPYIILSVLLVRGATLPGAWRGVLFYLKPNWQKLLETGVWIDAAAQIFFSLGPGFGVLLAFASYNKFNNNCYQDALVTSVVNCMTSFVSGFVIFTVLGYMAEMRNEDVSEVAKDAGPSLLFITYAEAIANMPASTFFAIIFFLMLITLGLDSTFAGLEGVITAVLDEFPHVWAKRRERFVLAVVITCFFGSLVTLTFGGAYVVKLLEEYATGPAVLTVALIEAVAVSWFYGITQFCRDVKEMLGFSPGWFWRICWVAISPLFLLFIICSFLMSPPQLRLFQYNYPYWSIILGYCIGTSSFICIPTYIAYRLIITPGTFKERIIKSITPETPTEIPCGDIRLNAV
# [16] = biological target: T9, Adrenergic Receptor α2A (ADRA2A) (Homo sapiens, UniProt P08913); assay: SAFETYscan GPCR cAMP; assay type: cell-based
# T9 construct: host or cells: cAMP Hunter cell lines
# [17] = biological target: Arginine Vasopressin Receptor 1A (AVPR1A) (Homo sapiens, UniProt P37288); assay: SAFETYscan GPCR Calcium Flux; assay type: cell-based; settings: read-out: RC50 (the source's name)
# [18] = biological target: T10, Dopamine Receptor D1 (DRD1) (Homo sapiens, UniProt P21728); assay: SAFETYscan GPCR cAMP; assay type: cell-based
# T10 construct: host or cells: cAMP Hunter cell lines
# [19] = biological target: T11, 5-Hydroxy tryptamine (Serotonin) Receptor 1A (HTR1A) (Homo sapiens, UniProt P08908); assay: SAFETYscan GPCR cAMP; assay type: cell-based
# T11 construct: host or cells: cAMP Hunter cell lines
# [20] = biological target: T12, Kv11.1, the alpha subunit of a potassium ion channel (hERG) (Homo sapiens, UniProt Q12809); assay: cell-based; settings: Blocker
# T12 construct: host or cells: unnamed DiscoverX cell line
# T12 sequence (Q12809 whole entry): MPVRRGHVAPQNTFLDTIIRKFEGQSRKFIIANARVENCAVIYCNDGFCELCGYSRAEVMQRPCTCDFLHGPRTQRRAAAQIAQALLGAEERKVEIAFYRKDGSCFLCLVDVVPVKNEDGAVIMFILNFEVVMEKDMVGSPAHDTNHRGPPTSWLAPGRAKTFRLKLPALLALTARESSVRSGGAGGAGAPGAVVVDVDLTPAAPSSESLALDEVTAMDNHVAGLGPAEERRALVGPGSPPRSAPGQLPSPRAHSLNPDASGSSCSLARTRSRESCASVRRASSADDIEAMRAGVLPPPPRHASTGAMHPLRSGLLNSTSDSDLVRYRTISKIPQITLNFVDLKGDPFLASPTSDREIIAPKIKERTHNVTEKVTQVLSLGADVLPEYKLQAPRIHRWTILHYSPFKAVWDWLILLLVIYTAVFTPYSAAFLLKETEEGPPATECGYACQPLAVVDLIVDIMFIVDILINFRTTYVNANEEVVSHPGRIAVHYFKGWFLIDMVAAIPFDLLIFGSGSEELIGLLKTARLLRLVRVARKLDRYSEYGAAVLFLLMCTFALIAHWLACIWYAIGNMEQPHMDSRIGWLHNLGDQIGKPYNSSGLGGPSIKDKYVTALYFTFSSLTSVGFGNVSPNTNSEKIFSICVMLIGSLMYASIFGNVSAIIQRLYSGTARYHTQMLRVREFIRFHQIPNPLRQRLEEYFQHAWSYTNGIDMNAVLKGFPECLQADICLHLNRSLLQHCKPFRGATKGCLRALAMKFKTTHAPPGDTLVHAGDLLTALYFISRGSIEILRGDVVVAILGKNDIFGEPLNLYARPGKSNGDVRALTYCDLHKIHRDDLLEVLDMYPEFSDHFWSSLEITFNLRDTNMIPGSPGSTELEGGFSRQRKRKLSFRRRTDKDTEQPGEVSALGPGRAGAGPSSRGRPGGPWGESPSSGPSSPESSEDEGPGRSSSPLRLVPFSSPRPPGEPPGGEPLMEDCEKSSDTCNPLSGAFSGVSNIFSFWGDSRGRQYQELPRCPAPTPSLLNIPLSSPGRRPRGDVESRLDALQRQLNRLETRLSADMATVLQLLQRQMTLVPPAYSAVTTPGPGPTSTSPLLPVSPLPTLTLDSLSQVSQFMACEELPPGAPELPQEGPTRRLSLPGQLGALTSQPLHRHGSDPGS
# [21] = 10 μM, read-out: MCA-13 Max. Responce
# [22] = read-out: RC50 (the source's name)
# T1 sequence (Q08499 303-809): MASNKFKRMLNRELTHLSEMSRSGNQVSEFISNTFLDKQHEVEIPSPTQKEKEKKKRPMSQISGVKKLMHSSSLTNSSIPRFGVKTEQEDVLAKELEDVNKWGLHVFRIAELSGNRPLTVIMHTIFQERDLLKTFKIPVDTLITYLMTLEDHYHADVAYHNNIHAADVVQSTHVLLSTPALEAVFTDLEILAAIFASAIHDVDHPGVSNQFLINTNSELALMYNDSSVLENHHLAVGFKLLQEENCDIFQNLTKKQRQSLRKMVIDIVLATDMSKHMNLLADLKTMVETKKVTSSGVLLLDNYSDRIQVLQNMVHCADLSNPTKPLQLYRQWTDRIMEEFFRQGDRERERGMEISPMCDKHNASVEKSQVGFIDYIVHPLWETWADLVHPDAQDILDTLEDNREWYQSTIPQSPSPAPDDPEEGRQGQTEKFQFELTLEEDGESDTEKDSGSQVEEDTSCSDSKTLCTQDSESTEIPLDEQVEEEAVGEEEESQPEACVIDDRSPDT
smiles,measurement,setting,value
"C=CCC1CCCC(CCC(=O)O)C1=C (stereo not drawn) [HU-MCA-13, 3-(3-allyl-2-methylenecyclohexyl)propanoic acid]",inhibition at 10 µM,[1]; [21],0%
same,IC50,[1]; [22],> 10 µM
same,EC50,[2],> 10 µM
same,IC50,[2],> 10 µM
same,inhibition at 10 µM,[3]; [21],3.22%
same,IC50,[3]; [22],> 10 µM
same,EC50,[4],> 10 µM
same,IC50,[4],> 10 µM
same,inhibition at 10 µM,[5]; [21],21.6%
same,IC50,[5]; [22],> 10 µM
same,EC50,[6],> 10 µM
same,IC50,[6],> 10 µM
same,EC50,[7]; Agonist,> 10 µM
same,IC50,[7]; Antagonist,> 10 µM
same,IC50,[8],> 10 µM
same,inhibition at 10 µM,"[8]; 10 μM, Inhibitor, Enzymatic, read-out: MCA-13 Max. Responce",4.27%
same,EC50,[9]; Agonist,> 10 µM
same,IC50,[9]; Antagonist,> 10 µM
same,EC50,[10]; Agonist,> 10 µM
same,IC50,[10]; Antagonist,> 10 µM
same,EC50,[11]; Agonist,> 10 µM
same,IC50,[11]; Antagonist,> 10 µM
same,IC50,[12],> 10 µM
same,IC50,[13],> 10 µM
same,inhibition at 10 µM,"[13]; 10 μM, Blocker, Transporter, read-out: MCA-13 Max. Responce",0%
same,EC50,[14],> 10 µM
same,IC50,[14],> 10 µM
same,inhibition at 10 µM,[15]; [21],15.4%
same,IC50,[15]; [22],> 10 µM
same,EC50,[16],> 10 µM
same,IC50,[16],> 10 µM
same,EC50,[17]; Agonist,> 10 µM
same,IC50,[17]; Antagonist,> 10 µM
same,EC50,[18],> 10 µM
same,IC50,[18],> 10 µM
same,EC50,[19],> 10 µM
same,IC50,[19],> 10 µM
same,MCA-13 Max. Responce,[20]; 10 μM,0%
same,IC50,[20]; [22],> 10 µM
